Results on 11 compounds are retold here after ChEMBL document CHEMBL1201862, “PubChem BioAssay data set” (2004).

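These data come from cells grown in 96-well plates and exposed to compound for 48 hours at five concentrations. GI50: concentration for 50% inhibition of growth.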 Activity calls are given as the source filed them. Rule as the data show it: active = GI50 up to about 1.1 µM and inactive = higher. Residues, ends and D or L forms follow the SMILES beside them. *: point of attachment. Pentanoyl = CCCCC(=O)*; Boc = CC(C)(C)OC(=O)*

Test systems include SK-MEL-28; SN12C; NCI-H226; MDA-MB-231; HCC 2998; T47D; SK-MEL-5; HCT-15; CCRF-CEM; RPMI-8226; MCF7; K562; BT-549; ACHN; NCI-H23; NCI-H460; SF-295; A498; HT-29.
Common to all, as to experiment: NCI-60 cell line screen, 48 h

As to `CC(C)(C)OCC1NC(=O)[C@@H]2Cc3c([nH]c4ccccc34)C(c3ccccc3)N2C1=O` (some centres undefined), the GI50 is > 50 µM (inactive) in the test with SK-MEL-28; > 50 µM (inactive) with SN12C; > 27.4 µM (inactive) in the test on NCI-H226; > 50 µM (inactive) in the test with MDA-MB-231; > 50 µM (inactive) in the test on HCC 2998; > 50 µM (inactive) in the test on T47D. For the same compound, the GI50 in the test with SK-MEL-5 was > 50 µM (inactive); with HCT-15, more than 50 µM; in the test with CCRF-CEM, > 50 µM (inactive); in the test with RPMI-8226, > 21.6 µM (inactive); in the test with MCF7, > 50 µM (inactive); in the test with K562 it was > 30.1 µM (inactive). Further, the GI50 in the test on BT-549, in the test on ACHN, in the test with NCI-H23, in the test on NCI-H460, in the test with SF-295 and in the test on A498 was > 50 µM (inactive) in each case. For the same compound, in the test with HT-29, the GI50 was > 50 µM (inactive).

For `COc1cc(C)c(C2NC(=O)c3ccccc3N2)cc1C` (centres undefined), the GI50 in the test on SK-MEL-28 was 0.59 µM (active); in the test on SN12C, 0.692 µM (active); in the test on NCI-H226, 0.652 µM (active); in the test with MDA-MB-231 it was 0.968 µM (active); in the test with HCC 2998, 1.33 µM (inactive); in the test on T47D, 0.447 µM (active). Moreover, the GI50 is 0.135 µM (active) in the test with SK-MEL-5; 0.217 µM in the test with HCT-15; 0.352 µM (active) in the test with CCRF-CEM; 0.0931 µM (active) in the test with RPMI-8226; 0.957 µM (active) in the test with MCF7; 0.125 µM (active) with K562. Moreover, the GI50 was 0.476 µM (active) in the test on BT-549; 0.47 µM (active) in the test with ACHN; 2.51 µM (inactive) in the test with NCI-H23; 0.342 µM (active) in the test with NCI-H460; 0.243 µM (active) in the test with SF-295; 0.312 µM (active) in the test with A498. The GI50 in the test with HT-29 was 0.321 µM (active).

Take `NS(=O)(=O)c1ccc(NC(=O)N/N=C/c2ccccc2[N+](=O)[O-])cc1`: the GI50 in the test on SK-MEL-28 is 61.2 µM (inactive); in the test on SN12C, 32.7 µM (inactive); in the test on NCI-H226 it was 42.9 µM (inactive); in the test on MDA-MB-231, 44.8 µM (inactive); in the test with HCC 2998, 33.9 µM (inactive); with T47D it was 57.4 µM (inactive). Further, the GI50 was 65.5 µM (inactive) with SK-MEL-5; 35 µM with HCT-15; 25.9 µM (inactive) in the test with CCRF-CEM; 30.3 µM (inactive) with RPMI-8226; 29.7 µM (inactive) in the test on MCF7; 28.8 µM (inactive) with K562. In addition, the GI50 with BT-549 is 45.4 µM (inactive); with ACHN, 66.7 µM (inactive); in the test with NCI-H23 it was 41.6 µM (inactive); in the test on NCI-H460, > 100 µM (inactive); in the test on SF-295, 61.7 µM (inactive); in the test with A498 it was > 100 µM (inactive). Further, in the test on HT-29, the GI50 is 30.1 µM (inactive).

With `Cc1cccc(/C=N/NC(=S)NC(C)(C)C)n1`, the GI50 with SK-MEL-28 is > 100 µM (inactive); in the test on SN12C it was > 100 µM (inactive); in the test with NCI-H226 it was 52.4 µM (inactive); in the test on MDA-MB-231, 34.6 µM (inactive); in the test on HCC 2998 it was 56.1 µM (inactive); in the test on T47D it was 6.24 µM (inactive). Moreover, the GI50 in the test with SK-MEL-5 is 56.1 µM (inactive); in the test with HCT-15, 24.8 µM; with CCRF-CEM it was 1.64 µM (inactive); in the test with RPMI-8226, 32.9 µM (inactive); in the test on MCF7, 18.5 µM (inactive); in the test on K562, 5.15 µM (inactive). In addition, the GI50 was > 100 µM (inactive) in the test with BT-549; 35.6 µM (inactive) in the test with ACHN; > 100 µM (inactive) with NCI-H23; 85.1 µM (inactive) with NCI-H460; > 100 µM (inactive) in the test with SF-295; > 100 µM (inactive) in the test with A498. Also, the GI50 in the test with HT-29 is 3.12 µM (inactive).

Take `C1=N\c2ccc(cc2)-c2ccc(cc2)/N=C\c2ccccc2OCc2cccc(n2)COc2ccccc2/1`: the GI50 was 84.9 µM (inactive) with SK-MEL-28; > 81.3 µM (inactive) in the test on SN12C; 39.5 µM (inactive) with NCI-H226; 34 µM (inactive) in the test on MDA-MB-231; > 100 µM (inactive) with HCC 2998; > 54 µM (inactive) in the test with T47D. Moreover, the GI50 in the test on SK-MEL-5 is > 31.2 µM (inactive); in the test with HCT-15, more than 100 µM; in the test with CCRF-CEM, > 100 µM (inactive); in the test on RPMI-8226, > 100 µM (inactive); in the test on MCF7, > 100 µM (inactive); with K562 it was > 100 µM (inactive). For the same compound, the GI50 was 32.7 µM (inactive) in the test on BT-549; 21.3 µM (inactive) in the test with ACHN; 15.1 µM (inactive) in the test with NCI-H23; 71.6 µM (inactive) in the test on NCI-H460; 18.5 µM (inactive) in the test with SF-295; 65.9 µM (inactive) in the test with A498. For the same compound, the GI50 in the test with HT-29 is > 100 µM (inactive).

With `CC(C)(C)c1cc(-c2cc(C(C)(C)C)[nH]n2)[nH]n1`, the GI50 in the test on SK-MEL-28, with SN12C, with NCI-H226, in the test with MDA-MB-231, with HCC 2998 and in the test on T47D was > 100 µM (inactive) each time. Further, the GI50 in the test with SK-MEL-5 was > 100 µM (inactive); in the test on HCT-15 it was more than 100 µM; with CCRF-CEM, 39.4 µM (inactive); with RPMI-8226, > 100 µM (inactive); in the test on MCF7, > 100 µM (inactive); in the test on K562, 47.5 µM (inactive). Also, the GI50 in the test on BT-549, in the test on ACHN, in the test on NCI-H23, in the test with NCI-H460, with SF-295 and in the test on A498 was > 100 µM (inactive) in each case. The GI50 with HT-29 was > 100 µM (inactive).

In the case of `C=C(C)C1CC/C(C)=C/CC[C@]2(C)O[C@H]2CC/C(COC(C)=O)=C\[C@@H]1O` (some centres undefined), the GI50 with SK-MEL-28, with SN12C, in the test with NCI-H226, in the test on MDA-MB-231, in the test on HCC 2998 and in the test on T47D was > 50 µM (inactive) in each case. Moreover, the GI50 in the test with SK-MEL-5 is > 50 µM (inactive); with HCT-15, more than 50 µM; in the test on CCRF-CEM, 16.3 µM (inactive); with RPMI-8226, > 50 µM (inactive); with MCF7, > 50 µM (inactive); in the test on K562, 11.1 µM (inactive). The GI50 in the test on BT-549 is > 50 µM (inactive); in the test on ACHN, > 50 µM (inactive); with NCI-H23, > 50 µM (inactive); with NCI-H460 it was 25.1 µM (inactive); with SF-295, 30.7 µM (inactive); in the test on A498, > 50 µM (inactive). The GI50 in the test on HT-29 was > 50 µM (inactive).

`COc1cccc2c1Cc1cc(-c3ccccc3)[n+](C)n1-2`: the GI50 in the test on SK-MEL-28 is 46.1 µM (inactive); in the test with SN12C, 8.85 µM (inactive); in the test on NCI-H226, 11.7 µM (inactive); in the test on MDA-MB-231, 13.2 µM (inactive); in the test with HCC 2998 it was 10.2 µM (inactive); in the test with T47D it was 3.4 µM (inactive). The GI50 is 8.89 µM (inactive) with SK-MEL-5; 31.3 µM in the test with HCT-15; 3.37 µM (inactive) in the test with CCRF-CEM; 4.18 µM (inactive) in the test with RPMI-8226; 2.3 µM (inactive) in the test on MCF7; 3.26 µM (inactive) with K562. Besides, the GI50 in the test with BT-549 is 22.5 µM (inactive); in the test with ACHN, 19.2 µM (inactive); with NCI-H23, 9.77 µM (inactive); with NCI-H460, 14.5 µM (inactive); in the test with SF-295 it was 20.3 µM (inactive); in the test with A498 it was 31.5 µM (inactive). The GI50 with HT-29 is 3.54 µM (inactive).

Turning to `O=C(O)c1ccccc1CC(Cc1ccccc1)C(=O)O` (centres undefined), the GI50 in the test with SK-MEL-28, in the test with SN12C, in the test on NCI-H226, in the test on MDA-MB-231, in the test with HCC 2998 and in the test on T47D was > 100 µM (inactive) each time. The GI50 with SK-MEL-5 is > 100 µM (inactive); in the test on HCT-15, more than 100 µM; in the test with CCRF-CEM, > 100 µM (inactive); in the test on RPMI-8226 it was > 100 µM (inactive); in the test with MCF7, > 10 µM (inactive); in the test on K562, > 100 µM (inactive). The GI50 in the test with BT-549, in the test on ACHN, in the test on NCI-H23, in the test on NCI-H460, in the test on SF-295 and with A498 was > 100 µM (inactive) in each case. In addition, the GI50 in the test on HT-29 is > 100 µM (inactive).

As for `CCN(CC)CCC(=O)c1ccc(C)cc1`, the GI50 in the test on SK-MEL-28 is 16.3 µM (inactive); in the test with SN12C, 36.9 µM (inactive); in the test on NCI-H226, 28.6 µM (inactive); with MDA-MB-231, 14.9 µM (inactive); in the test on HCC 2998 it was 43 µM (inactive); in the test with T47D, 14.7 µM (inactive). The GI50 with SK-MEL-5 was 13.1 µM (inactive); in the test with HCT-15 it was 18.7 µM; with CCRF-CEM it was 10.1 µM (inactive); in the test with RPMI-8226, 2.62 µM (inactive); with MCF7, 4.88 µM (inactive); in the test on K562, 14.9 µM (inactive). For the same compound, the GI50 was 22.4 µM (inactive) in the test with BT-549; 20.6 µM (inactive) with ACHN; 21.3 µM (inactive) in the test with NCI-H23; > 100 µM (inactive) in the test with NCI-H460; > 100 µM (inactive) with SF-295; 16.4 µM (inactive) with A498. For the same compound, the GI50 with HT-29 was 20.8 µM (inactive).

`CCCCC(=O)Oc1ccc(CC(NC(=O)OC(C)(C)C)C(=O)NC(C)C(=O)NC(Cc2ccccc2)C(=O)NCC(N)=O)cc1` (centres undefined) (Boc-Y(Pentanoyl)AFG-NH2; configuration not given here): the GI50 in the test on SK-MEL-28 was 27.3 µM (inactive); in the test with SN12C, 32.3 µM (inactive); with NCI-H226, > 100 µM (inactive); in the test with MDA-MB-231, 20 µM (inactive); in the test with HCC 2998, 20.6 µM (inactive); with T47D it was 27.4 µM (inactive). The GI50 in the test on SK-MEL-5 is 70 µM (inactive); in the test on HCT-15, more than 100 µM; in the test on CCRF-CEM, 40.6 µM (inactive); in the test with RPMI-8226 it was 21.2 µM (inactive); in the test on MCF7 it was 20.5 µM (inactive); in the test with K562, 46.3 µM (inactive). In addition, the GI50 with BT-549 was 23.7 µM (inactive); with ACHN, > 100 µM (inactive); in the test on NCI-H23, 41 µM (inactive); with NCI-H460, 31.7 µM (inactive); in the test on SF-295 it was 63.8 µM (inactive); with A498 it was > 100 µM (inactive). Moreover, the GI50 in the test with HT-29 is 19.4 µM (inactive).
